# Legend:
# apple tissue cultures = conditions: cited from earlier work
# [1] = test system: Apple plants cv. “Weirouge”; assay: Eriodictyol and luteoliflavan content in young apple leaves after treatment (HPLC); format: in vivo; conditions: for Eriodictyol / Luteoliflavan: 250 ppm to runoff, youngest fully developed leaf
# Protocol: Apple plants cv. “Weirouge” were grown under controlled-environment conditions and treated to runoff point with 250 ppm prohexadione-calcium (formulated as BAS 125 10 W=wettable granules, content 10%). At various points in time after the treatment, the youngest fully developed leaf was harvested from each individual shoot. The freeze-dried leaves which had been ground using a pestle and mortar were extracted with methanol. Flavonoids and related compounds in the concentrated extract were analyzed by HPLC. Separation was performed on Hypersil ODS (particle size 3 μm) on a 250×4 mm column. Elution was carried out at a flow rate of 0.5 ml per minute, and mixtures of formic acid (5% in water) and methanol, increased stepwise from a ratio of 95:5 to 10:90 (v/v) were used. Phenolic acids and flavonols were detected at 280 nm. Flavan-3-ols were determined by post-column derivatization with p-dimethylaminocinnamaldehyde at 640 nm. For methodological details, see Treutter et al. (1994), Journal of Chromatography A 667, 290-297.
# shoot tissue of apples = shoot tissue of apples after exposure; cited from earlier work
# Vines cv. “Dornfelder” = assay: Treatment of Dornfelder vines: ripeness, acid, pigmentation and taste of harvested grapes; format: in vivo, grapevine
# Protocol: Vines cv. “Dornfelder” were treated twice at different points in time with the formulation BAS 125 10W, which contains prohexadione-calcium. 1000 g of prohexadione-calcium in 1000 l of spray mixture were applied per ha per treatment.
# The 1st application was carried out at developmental stage 73 before the berries developed their color, and the 2nd application 10 days thereafter.
# Untreated control: 69° Oechsle, acid: 7.3 g/l; treated control: 67° Oechsle, acid: 7.4 g/l.
# [2] = two applications of 1000 g/ha in 1000 l spray mixture (BAS 125 10W), at harvest
substance,measurement,setting,value
prohexadione-calcium,content of phenolic substances,apple tissue cultures,increased several times
same,Eriodictyol,[1]; 12 days after treatment,17 g/kg dry matter
same,Luteoliflavan,[1]; 12 days after treatment,0 g/kg dry matter
same,Eriodictyol,[1]; 21 days after treatment,27 g/kg dry matter
same,Luteoliflavan,[1]; 21 days after treatment,34 g/kg dry matter
same,eriodictyol concentration in treated leaves,[1]; after 12 and 21 days,markedly increased
same,catechin and cyanidin in treated tissue,shoot tissue of apples,"not detectable in the treated tissue, or found in considerably reduced amounts only"
same,luteoliflavan and eriodictyol amounts,shoot tissue of apples,relatively large amounts
same,pigmentation of treated grapes,Vines cv. “Dornfelder”; compared with untreated grapes,less pronounced
same,taste of treated grapes,Vines cv. “Dornfelder”; compared with untreated grapes,no difference was observed
same,acid of harvested grapes,Vines cv. “Dornfelder”; [2],7.4 g/L
same,degree of ripeness of harvested grapes,Vines cv. “Dornfelder”; [2],67 ° Oechsle

# — patent US8105980B1, “Method of increasing the content of flavonoids and phenolic substances substances inplants” (Basf Aktiengesellschaft, priority 1999, dated 2012)
